Laboratory results as given in ChEMBL document CHEMBL4251541, “Microwave-enhanced Friedländer synthesis for the rapid assembly of halogenated quinolines with antibacterial and biofilm eradication activities against drug resistant and tolerant bacteria” (Medchemcomm, 2017).
Converted amounts (≈) assume the structure as drawn.

Assays:
[1] = system: Staphylococcus epidermidis; assay: Antibiofilm activity against methicillin-resistant Staphylococcus epidermidis ATCC 35984 after 24 hrs by calgary biofilm device-based assay; type: functional
Staphylococcus aureus [2] = assay: Antibacterial activity against methicillin-resistant Staphylococcus aureus isolate 2 after 16 to 18 hrs by broth microdilution method; type: functional
Enterococcus faecium [3] = assay: Antibiofilm activity against vancomycin-resistant Enterococcus faecium ATCC 700221 after 24 hrs by calgary biofilm device-based assay; type: functional
Enterococcus faecium [4] = assay: Bactericidal activity against vancomycin-resistant Enterococcus faecium ATCC 700221 after 24 hrs by calgary biofilm device-based assay; type: functional; conditions: ATCC 700221, 24 h
[5] = system: Staphylococcus epidermidis; assay: Antibacterial activity against methicillin-resistant Staphylococcus epidermidis ATCC 35984 after 16 to 18 hrs by broth microdilution method; type: functional
Staphylococcus aureus [6] = assay: Bactericidal activity against methicillin-resistant Staphylococcus aureus isolate 2 after 24 hrs by calgary biofilm device-based assay; type: functional; conditions: isolate 2, 24 h
[7] = system: Staphylococcus epidermidis; assay: Bactericidal activity against methicillin-resistant Staphylococcus epidermidis ATCC 35984 after 24 hrs by calgary biofilm device-based assay; type: functional; conditions: ATCC 35984, 24 h
Enterococcus faecium [8] = assay: Antibacterial activity against vancomycin-resistant Enterococcus faecium ATCC 700221 after 16 to 18 hrs by broth microdilution method; type: functional
[9] = Hemolytic activity in human RBC at 200 uM after 1 hr relative to control; type: ADME, cell-based, Erythrocyte; conditions: red blood cells (erythrocytes), read-out: Activity
Staphylococcus aureus [10] = assay: Antibiofilm activity against methicillin-resistant Staphylococcus aureus isolate 2 after 24 hrs by calgary biofilm device-based assay; type: functional
Staphylococcus aureus [11] = assay: Antibiofilm activity against methicillin-resistant Staphylococcus aureus BAA 1707 after 24 hrs by calgary biofilm device-based assay; type: functional
Staphylococcus aureus [12] = assay: Bactericidal activity against methicillin-resistant Staphylococcus aureus BAA 1707 after 24 hrs by calgary biofilm device-based assay; type: functional; conditions: BAA 1707, 24 h

CCCCCCCCCCCC[N+](C)(C)CC[N+](C)(C)CC[N+](C)(C)CCCCCCCCCCCC
MBEC [1]: 31.3 µM
MIC (Staphylococcus aureus [2]): 3.13 µM
MBEC (Enterococcus faecium [3]): 3 µM
MBC (Enterococcus faecium [4]): 3 µM
MIC [5]: 2.35 µM
MBC (Staphylococcus aureus [6]): 31.3 µM
MBC [7]: 31.3 µM
MIC (Enterococcus faecium [8]): 2.35 µM
hemolysis at 1 h, 200 µM [9]: > 99%
MBEC (Staphylococcus aureus [10]): 125 µM

CC(=O)c1cc2c(Br)cc(Br)c(O)c2nc1C
MIC (Staphylococcus aureus [2]): 1.56 µM (≈ 0.56 µg/mL)
MIC [5]: 6.25 µM (≈ 2.24 µg/mL)
MBC (Staphylococcus aureus [6]): 250 µM (≈ 89.8 µg/mL)
MIC (Enterococcus faecium [8]): 25 µM (≈ 8.98 µg/mL)
hemolysis at 1 h, 200 µM [9]: 2.3%
MBEC (Staphylococcus aureus [10]): >1000 µM

Cc1nc2c(O)c(Br)cc(Br)c2cc1C(=O)O/C(=N\C1CCCCC1)NC1CCCCC1
MIC (Staphylococcus aureus [2]): 12.5 µM (≈ 7.09 µg/mL)
MIC [5]: 1.56 µM (≈ 0.885 µg/mL)
MIC (Enterococcus faecium [8]): 25 µM (≈ 14.2 µg/mL)
hemolysis at 1 h, 200 µM [9]: ≤ 1%

Cc1nc2c(O)c(Br)cc(Br)c2cc1C(=O)N1CCOCC1
MIC (Staphylococcus aureus [2]): 100 µM (≈ 43 µg/mL)
MIC [5]: 50 µM (≈ 21.5 µg/mL)
MIC (Enterococcus faecium [8]): > 100 µM
hemolysis at 1 h, 200 µM [9]: ≤ 1%

Cc1nc2c(O)c(Br)cc(Br)c2cc1C(=O)c1ccccc1
MBEC [1]: 1 µM
MIC (Staphylococcus aureus [2]): 0.59 µM (≈ 0.248 µg/mL)
MBEC (Enterococcus faecium [3]): 23.5 µM
MBEC (Staphylococcus aureus [11]): 3.9 µM
MBC (Enterococcus faecium [4]): 46.9 µM (≈ 19.7 µg/mL)
MIC [5]: 3.13 µM (≈ 1.32 µg/mL)
MBC (Staphylococcus aureus [6]): 15.6 µM (≈ 6.57 µg/mL)
MBC [7]: 5.9 µM (≈ 2.48 µg/mL)
MBC (Staphylococcus aureus [12]): 7.8 µM (≈ 3.28 µg/mL)
MIC (Enterococcus faecium [8]): 0.78 µM (≈ 0.328 µg/mL)
hemolysis at 1 h, 200 µM [9]: 2.5%
MBEC (Staphylococcus aureus [10]): 23.5 µM

Oc1c(Br)cc(Br)c2ccc(-c3ccccc3)nc12
MIC (Staphylococcus aureus [2]): 25 µM (≈ 9.48 µg/mL)
MIC (Enterococcus faecium [8]): > 100 µM
hemolysis at 1 h, 200 µM [9]: 1.9%

COC(=O)c1cc2c(Br)cc(Br)c(O)c2nc1C
MIC (Staphylococcus aureus [2]): 1.56 µM (≈ 0.585 µg/mL)
MIC [5]: 0.3 µM (≈ 0.113 µg/mL)
MIC (Enterococcus faecium [8]): 2.35 µM (≈ 0.881 µg/mL)
hemolysis at 1 h, 200 µM [9]: 1.5%

CCCNC(=O)c1cc2c(Br)cc(Br)c(O)c2nc1C
MIC (Staphylococcus aureus [2]): 37.5 µM (≈ 15.1 µg/mL)
MIC [5]: 12.5 µM (≈ 5.03 µg/mL)
MIC (Enterococcus faecium [8]): 50 µM (≈ 20.1 µg/mL)
hemolysis at 1 h, 200 µM [9]: 7%

Cc1cnc2c(O)c(Br)cc(Br)c2c1
MBEC [1]: 31.3 µM
MIC (Staphylococcus aureus [2]): 3.13 µM (≈ 0.992 µg/mL)
MBEC (Enterococcus faecium [3]): 5.9 µM
MBC (Enterococcus faecium [4]): 7.8 µM (≈ 2.47 µg/mL)
MIC [5]: 1.17 µM (≈ 0.371 µg/mL)
MBC (Staphylococcus aureus [6]): 15.6 µM (≈ 4.94 µg/mL)
MBC [7]: 23.5 µM (≈ 7.45 µg/mL)
hemolysis at 1 h, 200 µM [9]: ≤ 1%
MBEC (Staphylococcus aureus [10]): 46.9 µM

CCOC(=O)c1c(C)nc2c(O)c(Br)cc(Br)c2c1C
MIC (Staphylococcus aureus [2]): 6.25 µM (≈ 2.52 µg/mL)
MIC [5]: 1.17 µM (≈ 0.472 µg/mL)
MIC (Enterococcus faecium [8]): 4.69 µM (≈ 1.89 µg/mL)
hemolysis at 1 h, 200 µM [9]: ≤ 1%

Oc1c(Br)cc(Br)c2cc(Cc3ccccc3)cnc12
MIC (Staphylococcus aureus [2]): 50 µM (≈ 19.7 µg/mL)
MIC [5]: 3.13 µM (≈ 1.23 µg/mL)
MIC (Enterococcus faecium [8]): 18.8 µM (≈ 7.39 µg/mL)
hemolysis at 1 h, 200 µM [9]: 4.6%

Cc1nc2c(O)c(Br)cc(Br)c2cc1C(=O)OCc1ccccc1
MBEC [1]: 15.6 µM
MIC (Staphylococcus aureus [2]): 6.25 µM (≈ 2.82 µg/mL)
MBEC (Enterococcus faecium [3]): 1.5 µM
MBC (Enterococcus faecium [4]): 3.9 µM (≈ 1.76 µg/mL)
MIC [5]: 0.1 µM (≈ 0.0451 µg/mL)
MBC (Staphylococcus aureus [6]): 375 µM (≈ 169 µg/mL)
MBC [7]: 46.9 µM (≈ 21.2 µg/mL)
MIC (Enterococcus faecium [8]): 0.3 µM (≈ 0.135 µg/mL)
hemolysis at 1 h, 200 µM [9]: 7.9%
MBEC (Staphylococcus aureus [10]): >1000 µM

Oc1c(Br)cc(Br)c2ccc(-c3ccccn3)nc12
MIC (Staphylococcus aureus [2]): 37.5 µM (≈ 14.3 µg/mL)
MIC (Enterococcus faecium [8]): 25 µM (≈ 9.5 µg/mL)
hemolysis at 1 h, 200 µM [9]: ≤ 1%

Cc1nc2c(O)c(Br)cc(Br)c2cc1C(=O)O
MIC (Staphylococcus aureus [2]): 50 µM (≈ 18 µg/mL)
MIC [5]: 25 µM (≈ 9.02 µg/mL)
MIC (Enterococcus faecium [8]): > 100 µM
hemolysis at 1 h, 200 µM [9]: 2.5%

CCOC(=O)c1cc2c(Br)cc(Br)c(O)c2nc1C
MBEC [1]: 23.5 µM
MIC (Staphylococcus aureus [2]): 0.39 µM (≈ 0.152 µg/mL)
MBEC (Enterococcus faecium [3]): 2 µM
MBC (Enterococcus faecium [4]): 3 µM (≈ 1.17 µg/mL)
MIC [5]: 0.1 µM (≈ 0.0389 µg/mL)
MBC (Staphylococcus aureus [6]): 31.3 µM (≈ 12.2 µg/mL)
MBC [7]: 93.8 µM (≈ 36.5 µg/mL)
MIC (Enterococcus faecium [8]): 0.78 µM (≈ 0.303 µg/mL)
hemolysis at 1 h, 200 µM [9]: 2.2%
MBEC (Staphylococcus aureus [10]): 31.3 µM

CCc1cnc2c(O)c(Br)cc(Br)c2c1
MBEC [1]: 46.9 µM
MIC (Staphylococcus aureus [2]): 6.25 µM (≈ 2.07 µg/mL)
MBEC (Enterococcus faecium [3]): 23.5 µM
MBC (Enterococcus faecium [4]): 31.3 µM (≈ 10.4 µg/mL)
MIC [5]: 0.59 µM (≈ 0.195 µg/mL)
MBC (Staphylococcus aureus [6]): 46.9 µM (≈ 15.5 µg/mL)
MBC [7]: 62.5 µM (≈ 20.7 µg/mL)
MIC (Enterococcus faecium [8]): 12.5 µM (≈ 4.14 µg/mL)
hemolysis at 1 h, 200 µM [9]: 2.4%
MBEC (Staphylococcus aureus [10]): 188 µM

CCc1nc2c(O)c(Br)cc(Br)c2cc1C
MIC (Staphylococcus aureus [2]): 6.25 µM (≈ 2.16 µg/mL)
MIC [5]: 0.15 µM (≈ 0.0518 µg/mL)
MBC (Staphylococcus aureus [6]): > 1000 µM
MIC (Enterococcus faecium [8]): 0.78 µM (≈ 0.269 µg/mL)
hemolysis at 1 h, 200 µM [9]: ≤ 1%
MBEC (Staphylococcus aureus [10]): >1000 µM

Cc1nc2c(O)c(Br)cc(Br)c2cc1C(=O)NCc1ccccc1
MIC (Staphylococcus aureus [2]): 6.25 µM (≈ 2.81 µg/mL)
MIC [5]: 6.25 µM (≈ 2.81 µg/mL)
MBC (Staphylococcus aureus [6]): > 2000 µM
MIC (Enterococcus faecium [8]): 25 µM (≈ 11.3 µg/mL)
hemolysis at 1 h, 200 µM [9]: 13%
MBEC (Staphylococcus aureus [10]): >1000 µM

Cc1ccc2c(Br)cc(Br)c(O)c2n1 [BROQUINALDOL]
MBEC [1]: 3 µM
MBEC (Enterococcus faecium [3]): 2 µM
MBEC (Staphylococcus aureus [11]): 31.3 µM
MBC (Enterococcus faecium [4]): 3 µM (≈ 0.951 µg/mL)
MIC [5]: 0.2 µM (≈ 0.0634 µg/mL)
MBC (Staphylococcus aureus [6]): 23.5 µM (≈ 7.45 µg/mL)
MBC [7]: 7.8 µM (≈ 2.47 µg/mL)
MBC (Staphylococcus aureus [12]): 31.3 µM (≈ 9.92 µg/mL)
MIC (Enterococcus faecium [8]): 2.35 µM (≈ 0.745 µg/mL)
hemolysis at 1 h, 200 µM [9]: ≤ 1%
MBEC (Staphylococcus aureus [10]): 46.9 µM

CCCCCCCCCC(=O)N[C@@H](Cc1c[nH]c2ccccc12)C(=O)N[C@@H](CC(N)=O)C(=O)N[C@@H](CC(=O)O)C(=O)N[C@@H]1C(=O)NCC(=O)N[C@@H](CCCN)C(=O)N[C@@H](CC(=O)O)C(=O)N[C@H](C)C(=O)N[C@@H](CC(=O)O)C(=O)NCC(=O)N[C@H](CO)C(=O)N[C@@H]([C@H](C)CC(=O)O)C(=O)N[C@@H](CC(=O)c2ccccc2N)C(=O)O[C@@H]1C [DAPTOMYCIN]
MIC [5]: 12.5 µM (≈ 20.3 µg/mL)
MBC (Staphylococcus aureus [6]): 62.5 µM (≈ 101 µg/mL)
MBEC (Staphylococcus aureus [10]): >2000 µM

CC(=O)NC[C@H]1CN(c2ccc(N3CCOCC3)c(F)c2)C(=O)O1 [LINEZOLID]
MIC (Staphylococcus aureus [2]): 3.13 µM (≈ 1.06 µg/mL)
MIC [5]: 3.13 µM (≈ 1.06 µg/mL)
MIC (Enterococcus faecium [8]): 3.13 µM (≈ 1.06 µg/mL)
hemolysis at 1 h, 200 µM [9]: ≤ 1%
MBEC (Staphylococcus aureus [10]): >2000 µM

CN[C@H](CC(C)C)C(=O)N[C@H]1C(=O)N[C@@H](CC(N)=O)C(=O)N[C@H]2C(=O)N[C@H]3C(=O)N[C@H](C(=O)N[C@H](C(=O)O)c4cc(O)cc(O)c4-c4cc3ccc4O)[C@H](O)c3ccc(c(Cl)c3)Oc3cc2cc(c3O[C@@H]2O[C@H](CO)[C@@H](O)[C@H](O)[C@H]2O[C@H]2C[C@](C)(N)[C@H](O)[C@H](C)O2)Oc2ccc(cc2Cl)[C@H]1O [VANCOMYCIN]
MBEC [1]: >2000 µM
MBEC (Enterococcus faecium [3]): 200 µM
MBEC (Staphylococcus aureus [11]): >2000 µM
MBC (Enterococcus faecium [4]): > 200 µM
MBC (Staphylococcus aureus [6]): 3 µM (≈ 4.35 µg/mL)
MBC (Staphylococcus aureus [12]): 3.9 µM (≈ 5.65 µg/mL)
MIC (Enterococcus faecium [8]): > 100 µM
hemolysis at 1 h, 200 µM [9]: ≤ 1%
MBEC (Staphylococcus aureus [10]): >2000 µM
